Measured values as given in patent US20070128217A1 (priority 2003, published 2007).

How the values were obtained:
[1] = system: antibodies in sera from SARS patients (sera 1a, 1b, 2, 6, 37, 62, London, SARS-yellow, SARS-green); assay type: binding, human; set-up: Binding of serum 6 to linear peptides of protein X1 of SARS-CoV Urbani / Binding of serum 37 to linear peptides of protein X1 of SARS-CoV Urbani / Binding of serum 6 to looped/cyclic peptide (PEPSCAN-ELISA) / Binding of serum 37 to looped/cyclic peptide (PEPSCAN-ELISA) / Binding of serum 37 to looped/cyclic peptides of protein X1 of SARS-CoV Urbani / Binding of serum 6 to linear peptides of protein X2 / Binding of serum 37 to linear peptides of protein X2 / Binding of serum 37 to looped/cyclic peptides of protein X2 of SARS-CoV Urbani / Binding of serum 6 to linear peptides of protein M of SARS-CoV Urbani / Binding of serum 37 to linear peptides of protein M of SARS-CoV Urbani / Binding of serum 6 to looped/cyclic peptides of protein M of SARS-CoV Urbani / Binding of serum 37 to looped/cyclic peptides of protein M of SARS-CoV Urbani / Binding of serum 6 to linear peptides of protein X3 of SARS-CoV Urbani / Binding of serum 37 to linear peptides of protein X3 of SARS-CoV Urbani / Binding of serum 37 to looped/cyclic peptides of protein X3 of SARS-CoV Urbani / Binding of serum 6 to linear peptides of protein X4 of SARS-CoV Urbani / Binding of serum 37 to linear peptides of protein X4 of SARS-CoV Urbani / Binding of serum 37 to looped/cyclic peptides of protein X4 of SARS-CoV Urbani / Binding of serum 6 to linear peptides of protein X5 of SARS-CoV Urbani / Binding of serum 37 to linear peptides of protein X5 of SARS-CoV Urbani / Binding of serum 37 to looped/cyclic peptides of protein X5 of SARS-CoV Urbani / Binding of serum 6 to linear peptides of protein N of SARS-CoV Urbani / Binding of serum 37 to linear peptides of protein N of SARS-CoV Urbani / Binding of serum 6 to linear peptide (PEPSCAN-ELISA) / Binding of serum 1a to looped/cyclic peptides of protein N of SARS-CoV Urbani / Binding of serum 1b to looped/cyclic peptides of protein N of SARS-CoV Urbani / Binding of serum 2 to looped/cyclic peptides of protein N of SARS-CoV Urbani / Binding of serum 6 to looped/cyclic peptides of protein N of SARS-CoV Urbani / Binding of serum 37 to looped/cyclic peptides of protein N of SARS-CoV Urbani / Binding of serum 62 to looped/cyclic peptides of protein N of SARS-CoV Urbani / Binding of serum London to looped/cyclic peptides of protein N of SARS-CoV Urbani / Binding of serum SARS-green to looped/cyclic peptides of protein N of SARS-CoV Urbani: unit not given here
[2] = system: rabbit serum obtained by immunizing a rabbit with the SARS-CoV strain Frankfurt 1; assay type: binding; set-up: Binding of a rabbit serum to linear peptides / Binding of a rabbit serum to looped peptides / Rabbit serum linear peptides / Rabbit serum looped peptides / Binding of a rabbit serum to linear peptides of protein N of SARS-CoV Urbani (Rabbit serum linear peptides) / Binding of a rabbit serum to looped/cyclic peptides of protein N of SARS-CoV Urbani (Rabbit serum looped peptides): unit not given here
[3] = system: control sera (pooled serum of ten healthy LUMC hospital workers; commercial negative donor pooled serum from the Dutch bloodbank); assay type: binding, human; set-up: Binding of Control serum LUMC to linear peptides / Binding of Control serum Blood-bank to linear peptides / Binding of Control serum LUMC to looped peptides / Binding of Control Serum Blood-Bank to Looped peptides / Binding of Control serum LUMC to linear peptides of the protein M of SARS-CoV Urbani / Binding of Control serum Blood-bank to linear peptides of the protein M of SARS-CoV Urbani / Binding of Control serum LUMC to looped peptides of the protein M of SARS-CoV Urbani / Binding of Control Serum Blood-Bank to Looped peptides of the protein M of SARS-CoV Urbani: unit not given here

MESELVIGAVIIRGH
Binding of serum 1a to linear peptides of protein M of SARS-CoV Urbani [1]: 0.8 | Binding of serum 1a to looped/cyclic peptides of protein M of SARS-CoV Urbani [1]: 0.7 | Binding of serum 1b to linear peptides of protein M of SARS-CoV Urbani [1]: 0.7 | Binding of serum 1b to looped/cyclic peptides of protein M of SARS-CoV Urbani [1]: 0.5 | Binding of serum 2 to linear peptides of protein M of SARS-CoV Urbani [1]: 0.8 | Binding of serum 2 to looped/cyclic peptides of protein M of SARS-CoV Urbani [1]: 0.6 | Binding of serum 6 to linear peptides of protein M of SARS-CoV Urbani [1]: 0.6 | Binding of serum 6 to looped/cyclic peptides of protein M of SARS-CoV Urbani [1]: 0.7 | Binding of serum 37 to linear peptides of protein M of SARS-CoV Urbani [1]: 0.5 | Binding of serum 37 to looped/cyclic peptides of protein M of SARS-CoV Urbani [1]: 0.7 | Binding of serum 62 to linear peptides of protein M of SARS-CoV Urbani [1]: 0.5 | Binding of serum 62 to looped/cyclic peptides of protein M of SARS-CoV Urbani [1]: 0.6 | Binding of serum London to linear peptides of protein M of SARS-CoV Urbani [1]: 0.4 | Binding of serum London to looped/cyclic peptides of protein M of SARS-CoV Urbani [1]: 0.2 | Binding of serum SARS-green to linear peptides of protein M of SARS-CoV Urbani [1]: 0.7 | Binding of serum SARS-green to looped/cyclic peptides of protein M of SARS-CoV Urbani [1]: 0.2 | Binding of serum SARS-yellow to linear peptides of protein M of SARS-CoV Urbani [1]: 0.2 | Binding of serum SARS-yellow to looped/cyclic peptides of protein M of SARS-CoV Urbani [1]: 0.6 | Rabbit serum linear peptides [2]: 0.2 | Rabbit serum looped peptides [2]: 0.2 | Binding of Control Serum Blood-Bank to Looped peptides of the protein M of SARS-CoV Urbani [3]: 0.7 | Binding of Control serum Blood-bank to linear peptides of the protein M of SARS-CoV Urbani [3]: 0.8 | Binding of Control serum LUMC to linear peptides of the protein M of SARS-CoV Urbani [3]: 0.8 | Binding of Control serum LUMC to looped peptides of the protein M of SARS-CoV Urbani [3]: 0.6

MFHLVDFQVTIAEIL
Binding of serum 1a to linear peptides of protein X3 of SARS-CoV Urbani [1]: 0.8 | Binding of serum 1a to looped/cyclic peptides of protein X3 of SARS-CoV Urbani [1]: 0.8 | Binding of serum 1b to linear peptides of protein X3 of SARS-CoV Urbani [1]: 0.7 | Binding of serum 1b to looped/cyclic peptides of protein X3 of SARS-CoV Urbani [1]: 0.6 | Binding of serum 2 to linear peptides of protein X3 of SARS-CoV Urbani [1]: 0.7 | Binding of serum 2 to looped/cyclic peptides of protein X3 of SARS-CoV Urbani [1]: 0.8 | Binding of serum 6 to linear peptides of protein X3 of SARS-CoV Urbani [1]: 0.5 | Binding of serum 6 to looped/cyclic peptides of protein X3 of SARS-CoV Urbani [1]: 0.6 | Binding of serum 37 to linear peptides of protein X3 of SARS-CoV Urbani [1]: 0.7 | Binding of serum 37 to looped/cyclic peptides of protein X3 of SARS-CoV Urbani [1]: 1.0 | Binding of serum 62 to linear peptides of protein X3 of SARS-CoV Urbani [1]: 0.8 | Binding of serum 62 to looped/cyclic peptides of protein X3 of SARS-CoV Urbani [1]: 0.8 | Binding of serum London to linear peptides of protein X3 of SARS-CoV Urbani [1]: 0.7 | Binding of serum London to looped/cyclic peptides of protein X3 of SARS-CoV Urbani [1]: 0.3 | Binding of serum SARS-green to linear peptides of protein X3 of SARS-CoV Urbani [1]: 0.3 | Binding of serum SARS-green to looped/cyclic peptides of protein X3 of SARS-CoV Urbani [1]: 0.6 | Binding of serum SARS-yellow to linear peptides of protein X3 of SARS-CoV Urbani [1]: 0.6 | Binding of serum SARS-yellow to looped/cyclic peptides of protein X3 of SARS-CoV Urbani [1]: 0.8 | Rabbit serum linear peptides [2]: 0.3 | Rabbit serum looped peptides [2]: 0.4 | Binding of Control Serum Blood-Bank to Looped peptides of the protein X3 of SARS-CoV Urbani [3]: 0.8 | Binding of Control serum Blood-bank to linear peptides of the protein X3 of SARS-CoV Urbani [3]: 0.9 | Binding of Control serum LUMC to linear peptides of the protein X3 of SARS-CoV Urbani [3]: 0.9 | Binding of Control serum LUMC to looped peptides of the protein X3 of SARS-CoV Urbani [3]: 1.0

MKIILFLTLIVFTSC
Binding of serum 1a to linear peptides of protein X4 of SARS-CoV Urbani [1]: 0.6 | Binding of serum 1a to looped/cyclic peptides of protein X4 of SARS-CoV Urbani [1]: 0.6 | Binding of serum 1b to linear peptides of protein X4 of SARS-CoV Urbani [1]: 0.5 | Binding of serum 1b to looped/cyclic peptides of protein X4 of SARS-CoV Urbani [1]: 0.0 | Binding of serum 2 to linear peptides of protein X4 of SARS-CoV Urbani [1]: 0.4 | Binding of serum 2 to looped/cyclic peptides of protein X4 of SARS-CoV Urbani [1]: 0.5 | Binding of serum 6 to linear peptides of protein X4 of SARS-CoV Urbani [1]: 0.4 | Binding of serum 6 to looped/cyclic peptides of protein X4 of SARS-CoV Urbani [1]: 0.5 | Binding of serum 37 to linear peptides of protein X4 of SARS-CoV Urbani [1]: 0.7 | Binding of serum 37 to looped/cyclic peptides of protein X4 of SARS-CoV Urbani [1]: 0.6 | Binding of serum 62 to linear peptides of protein X4 of SARS-CoV Urbani [1]: 0.7 | Binding of serum 62 to looped/cyclic peptides of protein X4 of SARS-CoV Urbani [1]: 0.5 | Binding of serum London to linear peptides of protein X4 of SARS-CoV Urbani [1]: 0.7 | Binding of serum London to looped/cyclic peptides of protein X4 of SARS-CoV Urbani [1]: 0.2 | Binding of serum SARS-green to linear peptides of protein X4 of SARS-CoV Urbani [1]: 0.4 | Binding of serum SARS-green to looped/cyclic peptides of protein X4 of SARS-CoV Urbani [1]: 0.3 | Binding of serum SARS-yellow to linear peptides of protein X4 of SARS-CoV Urbani [1]: 0.5 | Binding of serum SARS-yellow to looped/cyclic peptides of protein X4 of SARS-CoV Urbani [1]: 0.6 | Rabbit serum linear peptides [2]: 0.7 | Rabbit serum looped peptides [2]: 0.4 | Binding of Control Serum Blood-Bank to Looped peptides [3]: 0.6 | Binding of Control serum Blood-bank to linear peptides [3]: 0.6 | Binding of Control serum LUMC to linear peptides [3]: 0.5 | Binding of Control serum LUMC to looped peptides [3]: 0.7

MLHSSSLTSLLKTHR
Binding of serum 1a to linear peptides of protein X2 [1]: 0.6 | Binding of serum 1a to looped/cyclic peptides of protein X2 of SARS-CoV Urbani [1]: 0.5 | Binding of serum 1b to linear peptides of protein X2 [1]: 0.4 | Binding of serum 1b to looped/cyclic peptides of protein X2 of SARS-CoV Urbani [1]: 0.5 | Binding of serum 2 to linear peptides of protein X2 [1]: 0.4 | Binding of serum 2 to looped/cyclic peptides of protein X2 of SARS-CoV Urbani [1]: 0.5 | Binding of serum 6 to linear peptides of protein X2 [1]: 0.6 | Binding of serum 6 to looped/cyclic peptides of protein X2 of SARS-CoV Urbani [1]: 0.2 | Binding of serum 37 to linear peptides of protein X2 [1]: 0.5 | Binding of serum 37 to looped/cyclic peptides of protein X2 of SARS-CoV Urbani [1]: 0.3 | Binding of serum 62 to linear peptides of protein X2 [1]: 0.5 | Binding of serum 62 to looped/cyclic peptides of protein X2 of SARS-CoV Urbani [1]: 0.5 | Binding of serum London to linear peptides of protein X2 [1]: 0.6 | Binding of serum London to looped/cyclic peptides of protein X2 of SARS-CoV Urbani [1]: 0.2 | Binding of serum SARS-green to linear peptides of protein X2 [1]: 0.5 | Binding of serum SARS-green to looped/cyclic peptides of protein X2 of SARS-CoV Urbani [1]: 0.4 | Binding of serum SARS-yellow to linear peptides of protein X2 [1]: 0.5 | Binding of serum SARS-yellow to looped/cyclic peptides of protein X2 of SARS-CoV Urbani [1]: 0.5 | Binding of a rabbit serum to linear peptides [2]: 0.2 | Binding of a rabbit serum to looped peptides [2]: 0.5 | Binding of Control Serum Blood-Bank to Looped peptides [3]: 0.6 | Binding of Control serum Blood-bank to linear peptides [3]: 0.5 | Binding of Control serum LUMC to linear peptides [3]: 0.4 | Binding of Control serum LUMC to looped peptides [3]: 0.5
